Experiments:
[1] = target: T1, human PTP1B (Homo sapiens, UniProt P18031); assay: PTP1B inhibition assay (pNPP substrate, UV absorption); type: biochemical; settings: for inhibition at 10 µM: PTP1B inhibition at 10 μM, performed in triplicate
T1 construct: purchased Sigma
T1 sequence (P18031 1-435): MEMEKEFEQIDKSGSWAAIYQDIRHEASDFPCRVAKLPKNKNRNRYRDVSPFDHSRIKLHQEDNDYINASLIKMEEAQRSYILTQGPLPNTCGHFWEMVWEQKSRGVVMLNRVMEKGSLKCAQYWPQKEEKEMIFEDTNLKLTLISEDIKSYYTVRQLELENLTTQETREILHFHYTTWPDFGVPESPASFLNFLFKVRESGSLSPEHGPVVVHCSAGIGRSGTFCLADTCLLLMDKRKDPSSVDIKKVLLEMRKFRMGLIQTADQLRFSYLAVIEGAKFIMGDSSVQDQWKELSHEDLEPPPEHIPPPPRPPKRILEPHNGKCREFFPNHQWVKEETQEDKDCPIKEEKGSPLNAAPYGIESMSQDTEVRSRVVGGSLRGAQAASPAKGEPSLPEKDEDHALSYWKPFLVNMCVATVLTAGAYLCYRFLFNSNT
Method: The inhibitory assay was performed using human PTP1B (purchased from Sigma) and p-nitrophenylphosphate (pNPP) as substrate by UV absorption. 400 nmol pNPP were dissolved in H2O and 48 μL of the solution was added to a 100 μL reaction. The indicated amount of synthetic compounds was diluted in DMSO at a concentration of 5 mM. The PTP1B was diluted in pH 7.2 buffer contained 50 mM HEPES, 3 mM dithiothreitol, 2 mM EDTA and 100 mM NaCl. About 50 μL PTP1B dilution was added, and the mixture incubated at 37 °C for 30 min. 1N NaOH was added to terminate the reaction. UV–Vis absorption was detected at 410 nm using a Tecan Infinite M1000 plate reader.

[2] = test system: HepG2 cells; assay: Cell viability in the MTT assay; type: cell-based, human; settings: 40 μM compound, 24 h
Method: Cell viability in the MTT assay
The toxicities of the compounds were evaluated by (3-(4, 5-dimethylthiazolyl-2)-2, 5-diphenyltetrazolium bromide) test. HepG2 cells were routinely grown in Dulbecco's Modified Eagle Medium (DMEM) supplemented with 10% (v/v) fetal bovine serum, streptomycin ([…]), and penicillin (100U/mL), in a humidified atmosphere of 95% air, 5% CO2 at 37°C. HepG2 cells were planked in a 96 well plate with a concentration of 1×10^4 cells/well and cultured in 37°C and 5%CO2 for 24 h. Then HepG2 cells were treated with 40 μM of the synthetic compound. HepG2 cells untreated were used as control. HepG2 cells were cultured in 37℃ and 5%CO2 for 24 h, the old medium was carefully removed and were cultured for another 4 h in MTT (0.5%) containing DMEM, then the medium was carefully removed. 150 µL/well dimethyl sulfoxide was added and oscillated gently to make crystal dissolved. The absorbance at 560 nm was measured using a microplate reader. The cell […]
Fig. S1. Cell viability in the MTT assay.
(1 picture or pasted object on this page, not shown here)

[3] = test system: NIDDM mice; type: in vivo; settings: for Antihyperglycaemic effect (plasma glucose): male Kunming mice, 100 mg/kg intraperitoneally, glucose at 0-4 h, n = 8
Method: The antihyperglycaemic effect of the compounds 15, 25 and C10a were evaluated on non-insulin dependent diabetes mellitus (NIDDM) mice. Nicotinamide and streptozotocin were administrated intraperitoneally to induce hyperglycaemia and the plasma glucose of mice raised over 4.5 mmol/L[45].
Figure 5. The antihyperglycaemic effect in NIDDM mice (n = 8). […] M group: NIDDM mice were treated with saline alone. Y group: NIDDM mice were treated with rosiglitazone.
During the experiment, the male Kunming mice with 25–30 g body weight were fasted but received water prior to induction of diabetes. 110 mg/kg of nicotinamide and 65 mg/kg of streptozotocin (Macklin in Biochemical Technology Co., Ltd., Shanghai, China) were dissolved in pH 4.5 citrate buffer and intraperitoneally administrated to induce NIDDM mice model. The mice were intraperitoneally administered with a compound or rosiglitazone (100 mg/kg) dissolved in saline containing 1% DMSO and 10% Tween 80. Hyperglycaemia was confirmed by a plasma glucose increase of more than 4.5 mmol/L measured by a blood glucose metre (Sinocare GA-3, Changsha, China). Glucose concentrations from the tail of the mice were measured at 0, 0.5, 1, 2, 3 and 4 h by the blood glucose metre. Calculate the percentage of blood glucose by using the following formula: variation of glycaemia% = (AX − A0)/A0 × 100% (AX: blood glucose at selected time; A0: initial blood glucose).

[4] = test system: PTP1B; parameters: method as in PMID 20964318; settings: cited from earlier work
[5] = test system: insulin-resistant HepG2 cells; assay: Glucose uptake / glucose consumption in insulin-resistant HepG2 cells; type: cell-based, human; settings: HepG2 induced with 1.5 × 10^−5 mmol insulin for 36 h; compound 40 μM or rosiglitazone 10 μM for 24 h; glucose oxidase method
Method: To assess the insulin sensitisation, the cellular effect of these compounds on insulin-resistant human hepatoma HepG2 cells was performed. The concentration of insulin and induction time were screened to induce insulin resistance in HepG2 cells according to the reported method[41]^,[42] with some modification. As shown in Figure 4(A), treatment with above 1 × 10^−5 mmol of insulin reduced glucose uptake, whereas treatment with 6 × 10^−6 mmol of insulin enhanced glucose uptake. […] As shown in Figure 4(B), insulin resistance was induced in HepG2 cells at 36 h, and rosiglitazone can decrease the insulin resistance. […]
Figure 4. […] After incubation, glucose content in the culture medium was measured by glucose oxidase method. […]
HepG2 cells were grown in DMEM with 10% foetal bovine serum, […] of streptomycin, and 100 U/mL of penicillin, in a humidified atmosphere of 5% CO2 at 37 °C. […] After cultivation, the glucose content was determined by the glucose oxidase method (the glucose analysis kit was purchased from Rongsheng Biopharmaceutical Co., Ltd., Shanghai, China). […] The absorbance was measured at 506 nm using a microplate reader (SpectraMax i3x, Molecular Devices). The residual glucose concentration is expressed as AX/A0 × 5.55 mmol/L (AX: OD value of sample; A0: OD value of glucose standard solution).

inhibition at 10 µM [1] [%]	melting point [°C]	Compound	further results
35	–	CC(C)C1=CC2=CC[C@@H]3[C@](C)(CCC[C@@]3(C)C(=O)O)[C@H]2CC1 [Compound 1, abietic acid]	–
19	92 to 93	CC(C)(O)c1ccc2c(c1)CC[C@H]1[C@](C)(C(=O)O)CCC[C@]21C [Compound 3, 15-Hydroxydehydroabieta-18-oic acid]	–
4	51 to 52	CCOC(=O)[C@]1(C)CCC[C@]2(C)c3ccc(C(C)(C)O)cc3CCC12 (stereo partly drawn) [Compound 4a, Ethyl 15-hydroxydehydroabietate]	–
0	–	CC(C)(O)c1ccc2c(c1)CCC1[C@](C)(CO)CCC[C@]21C (stereo partly drawn) [Compound 5, 1-Hydroxylmethyl-15-hydroxydehydroabietate]	–
1	101 to 102	C[C@@]1(C(=O)O)CCC[C@]2(C)c3ccc(O)cc3CCC12 (stereo partly drawn) [Compound 7, 13-hydroxy-8,11,13-podocarpatriene-1-carboxylic acid]	–
3	–	CC(C)C1=CC2=CCC3C(C)(CO)CCCC3(C)C2CC1 (stereo not drawn) [Compound 9]	–
2	67 to 68	Cc1ccc(S(=O)(=O)OCC2(C)CCCC3(C)C4CCC(C(C)C)=CC4=CCC23)cc1 (stereo not drawn) [Compound 10]	–
0	–	CC(C)C1=CC2=CCC3C(C)(C)CCCC3(C)C2CC1 (stereo not drawn) [Compound 11]	–
22	–	CC(C)(O)c1ccc2c(c1)CCC1C(C)(C)CCCC21C (stereo not drawn) [Compound 13, 15-Hydroxydehydroabietane]	–
15	145 to 146	CC1(C)CCCC2(C)c3ccc(O)cc3CCC12 (stereo not drawn) [Compound 14, 13-Hydroxy-8,11,13-podocarpatriene]	–
–	72 to 73	C[C@@]1(C(=O)O)CCC[C@]2(C)c3ccc(OCCOC(=O)c4ccccc4C(=O)O)cc3CCC12 (stereo partly drawn) [Compound 15]	–
–	138 to 139	C[C@@]1(C(=O)O)CCC[C@]2(C)c3ccc(OCCOC(=O)c4ccccc4)cc3CCC12 (stereo partly drawn) [Compound 25]	–
–	126 to 127	C[C@@]1(C(=O)O)CCC[C@]2(C)c3ccc(OCCOC(=O)c4ccccc4N)cc3CCC12 (stereo partly drawn) [Compound 28]	–
–	189 to 190	C[C@@]1(C(=O)O)CCC[C@]2(C)c3ccc(OCCOC(=O)c4ccc5cc(C(=O)O)ccc5c4)cc3CCC12 (stereo partly drawn) [Compound 34]	–
–	–	CC1(C)CCC2(COC(=O)c3ccccc3C(=O)O)CCC3(C)C(=CCC4C5(C)CCC(=O)C(C)(C)C5CCC43C)C2C1 (stereo not drawn) [Compound C10a]	Cytotoxicity [2]: considerable cytotoxicity and High; IC50 ([1]; values from the text, quantity type not printed there (Table 2 is an image), read-out: PTP1B enzymatic inhibitory activities): 3.1 µM; Antihyperglycaemic effect (plasma glucose) [3]: showed the antihyperglycaemic effect; Acute toxicity observations in treated mice ([3]; mouse, in vivo, ip): hydroabdomen, thrombus and tail necrosis; IC50 ([4]; previous work, read-out: PTP1B inhibition IC50): 3.12 µM; PTP1B inhibition, fold more than the parent compound OA ([4]; versus OA): 7.6 fold
–	–	CN(CCOc1ccc(CC2SC(=O)NC2=O)cc1)c1ccccn1 (stereo not drawn) [rosiglitazone]	Effect on glucose consumption / insulin-stimulated glucose uptake [5]: significantly decrease the insulin resistance and improve the glucose uptake; Antihyperglycaemic effect (plasma glucose) [3]: significant antihyperglycaemic effect after 1 h
